Publication PMC3348578 (2009)

Tests used:
[1] = test system: DPP4-like protease; test: honeybee venom gland extracts; conditions: cited from earlier work
[2] = test system: FAP (purified recombinant FAP; His-tagged FAP lacking the transmembrane domain); test: purified FAP in FAP assay buffer containing 100 mmol/L Tris, 100 mmol/L NaCl; conditions: 37°C, up to 8 h

not cleaved [2] | Substance | fragment found [1] [dipeptide fragments]
– | APEPEPAPEPEAEADAEADPEAGIGAVLKVLTTGLPALISWIKRKRQQ-NH2 | 11
not cleaved by FAP | NH2-GIGAVLKVLTTGLPALISWIKRKRQQ-NH2 | –
